This is an account of results in patent EP0752872B1, “NADH OXIDASE AS A TARGET IN DIAGNOSIS AND THERAPY” (Morré, D. James, priority 1994, dated 1995).

Assay [1] concerns the target T1, NADH oxidase from HeLa cell plasma membranes (Homo sapiens, UniProt Q16206).
T1 sequence (Q16206 1-610): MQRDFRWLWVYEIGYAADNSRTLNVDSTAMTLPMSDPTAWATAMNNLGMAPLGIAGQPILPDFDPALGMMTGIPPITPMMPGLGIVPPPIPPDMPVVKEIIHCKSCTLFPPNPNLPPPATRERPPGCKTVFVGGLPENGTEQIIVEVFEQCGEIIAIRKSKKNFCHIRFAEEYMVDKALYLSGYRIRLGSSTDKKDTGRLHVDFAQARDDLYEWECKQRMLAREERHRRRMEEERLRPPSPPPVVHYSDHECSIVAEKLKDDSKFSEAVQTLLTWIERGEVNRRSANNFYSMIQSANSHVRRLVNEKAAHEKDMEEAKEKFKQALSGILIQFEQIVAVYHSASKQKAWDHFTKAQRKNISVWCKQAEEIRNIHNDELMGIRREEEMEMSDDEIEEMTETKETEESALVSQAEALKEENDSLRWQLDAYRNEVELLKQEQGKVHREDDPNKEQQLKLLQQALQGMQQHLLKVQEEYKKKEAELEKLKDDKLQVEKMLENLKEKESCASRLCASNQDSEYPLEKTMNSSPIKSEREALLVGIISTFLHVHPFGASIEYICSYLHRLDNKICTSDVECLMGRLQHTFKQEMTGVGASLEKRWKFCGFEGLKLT
Put plainly: Spectrophotometric NADH oxidase assay, HeLa plasma membranes. Type of assay: biochemical. Conditions: HeLa plasma membranes. The method, then:
Purification of plasma membranes from HeLa cells. HeLa cells were grown as suspension cultures in minimum essential medium (MEM) supplemented with horse serum, diferric transferrin and heparin. Cells were collected by centrifugation for 6 to 15 min at 1,000 to 3,000 rpm. The cell pellets were resuspended in 0.2 mM EDTA in 1 mM NaHCO3 in an approximate ratio of 1 ml per 10^8 cells and incubated on ice for 10 to 30 min to swell the cells. Homogenization was with a Polytron Homogenizer for 30 to 40 sec at 10,500 rpm using a PT-PA 3012/23 or ST-probe in 7 to 8 ml aliquots. To estimate breakage, the cells are monitored by light microscopy before and after homogenization. […]
The homogenates were centrifuged for 10 min at 1,000 rpm (175 g) to remove unbroken cells and nuclei and the supernatant was centrifuged a second time at 1.4 x 10^6 g min (e.g. 1 h at 23,500 g) to prepare a plasma membrane enriched microsome fraction. […] The purity of the plasma membrane was determined to be > 90% by electron microscope morphometry. […]
Spectrophometric assay of NADH oxidase. NADH oxidase activity was determined as the disappearance of NADH measured at 340 nm in a reaction mixture containing 25 mM Tris-MES buffer (pH 7.2), 1 mM KCN to inhibit the low levels of contaminating mitochondrial oxidase activity, and 150 µM NADH at 37°C with constant stirring. […]

Assay [2] deals with T2, plasma membrane NADH oxidase activity from RLT-N hepatoma (Rattus norvegicus, UniProt D3Z9Z5).
T2 sequence (D3Z9Z5 1-606): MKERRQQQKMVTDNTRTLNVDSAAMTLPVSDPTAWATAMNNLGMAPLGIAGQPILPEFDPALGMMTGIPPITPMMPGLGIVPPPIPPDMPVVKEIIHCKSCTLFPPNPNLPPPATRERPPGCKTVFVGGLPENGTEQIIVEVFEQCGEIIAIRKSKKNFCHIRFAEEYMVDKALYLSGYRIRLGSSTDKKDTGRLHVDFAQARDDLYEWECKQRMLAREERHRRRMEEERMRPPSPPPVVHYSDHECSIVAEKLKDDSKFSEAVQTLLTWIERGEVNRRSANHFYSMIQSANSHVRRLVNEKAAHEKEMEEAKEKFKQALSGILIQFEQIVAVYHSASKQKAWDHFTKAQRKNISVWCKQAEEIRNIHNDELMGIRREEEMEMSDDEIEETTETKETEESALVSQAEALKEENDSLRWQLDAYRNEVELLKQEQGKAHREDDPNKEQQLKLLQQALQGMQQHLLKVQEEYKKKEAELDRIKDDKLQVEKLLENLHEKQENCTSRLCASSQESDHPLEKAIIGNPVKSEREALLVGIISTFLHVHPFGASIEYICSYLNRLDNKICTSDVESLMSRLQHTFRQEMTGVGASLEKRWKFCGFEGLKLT
The assay can be described thus: Spectrophotometric NADH oxidase assay, rat hepatoma plasma membranes. Conditions: final concentration of 0.4 µM prepared in DMSO; equivalent DMSO without effect. The assay is classed as biochemical. The method, then:
Spectrophometric assay of NADH oxidase. NADH oxidase activity was determined as the disappearance of NADH measured at 340 nm in a reaction mixture containing 25 mM Tris-MES buffer (pH 7.2), 1 mM KCN to inhibit the low levels of contaminating mitochondrial oxidase activity, and 150 µM NADH at 37°C with constant stirring. Activity was measured using a Hitachi U3210 spectrophotometer with continuous recording over two intervals of 5 min each. A millimolar extinction coefficient of 6.22 was used to determine specific activity.

As for `CCCCCCCCCC[C@H](O)[C@H]1CC[C@H]([C@H]2CC[C@H]([C@H](O)CCCCCCCCCC[C@@H](O)CC3=C[C@H](C)OC3=O)O2)O1` [bullatacin], in assay [1], the “inhibition of NADH oxidase activity (in words)” value is “inhibition”.
On to simalikalactone D [similikalactone D], for which the “inhibition of NADH oxidase activity (in words)” value in assay [2] is recorded as “inhibited”.
